Measured values: patent US10011602B2, “Immunological reagents and uses therefor” (THE UNIVERSITY OF MELBOURNE, priority 2012, dated 2018)

Columns and labels:
[1] = Stability of synthesised MR1 Ags; format: physicochemical
Text: Compounds 6,7-dimethyl-8-D-ribityllumazine (1), 7-hydroxy-6-methyl-8-D-ribityllumazine (2) and a 2 electron reduced form (3) of 6-hydroxymethyl-8-D-ribityllumazine were synthesised by modifications (FIG. 64) to reported literature procedures (for review see Plaut et al 1974). Their purities were established using proton NMR spectra and reversed phase HPLC traces. In brief, D-ribitylamine (6) was produced in 55% yield from D-(−)-ribose via its oxime intermediate. Condensation with 4-chlorouracil (7) followed by nitrosation provided the key intermediate (9) in reasonable yield (27%). The diaminouracil (10) was unstable, and therefore it was generated in situ, immediately before use, by reduction of the nitroso group with sodium hydrosulfite. Condensation with the corresponding α,β-dicarbonyl reagents at the optimal pH under a nitrogen atmosphere in the dark gave the products 1 and 2 after purification by preparative HPLC. […] For dimethyl analogue 1, three equivalents of 2,3-butadione gave a much purer crude product than reported in the literature, in which 6.6 equivalents gave a significant amount of bis-adduct and made purification difficult. […] Thus prolonged reaction and work-up procedures were best avoided. In contrast, a large excess of sodium pyruvate (9-18 eq) was key for efficient production of the 7-hydroxy analogue. […]

[2] = system: human MAIT cells from peripheral blood; test: Activation of primary MAIT cells from PBMCs (CD69, IFN-γ, TNF-α); format: cell-based; conditions: PBMCs with C1R cells expressing MR1
Experimental: PBMCs from a healthy donor were mixed with C1R-huMR1 cells (10^5 each/well). Salmonella SL1344 supernatant (2 μl) from cultures grown in LB supplemented with 25 μg/ml streptomycin (Sigma) for 4 hr at 37° C., or compounds (35A, 36A, 48G: 25 μg/ml final, A-6FP: 10 μM final) or PMA (2 ng/ml+ionomycin (1 ng/ml) added in a total volume of 220 μl RF-10, and incubated overnight at 37° C. Cells were stained with anti-CD3-PE-Cy7 (eBioscience, 20 μg/ml), anti-CD4-APC-Cy7 (Biolegend, 1.7 μg/ml), anti-CD161-APC (Miltenyi Biotec, 1:50), FITC-conjugated D5 (anti-MAIT TCR, 10 μg/ml) and either anti-CD69-PE (BD Biosciences 1:50), anti-IFNγ-PE (BD Pharmingen 10 μg/ml) or anti-TNFα-PE (BD Pharmingen 10 μg/ml), and analyzed by flow cytometry using a Canto II cytometer and Diva software. For intracellular cytokine staining, brefeldin A (10 μg/ml) was added to the assay after the first 1 hr and the incubation allowed to proceed overnight. Cells were fixed with 1% parformaldehyde after staining for surface markers and permeabilised with 1% saponin during cytokine stains. MAIT cells were defined as CD3^+, CD4^−, CD161^+, D5^+ after gating on PBMCs using FSC and SSC.
PBMCs from a healthy donor were mixed with C1R cells expressing MR1 (10^5 each/well). Salmonella SL1344 supernatant (2 μl) from cultures grown in LB supplemented with 25 μg/ml streptomycin (Sigma) for 4 hr at 37° C., or compounds (RL-6,7-diMe, RL-6-Me-7-OH, 6FP: 76.2 μM final, rRL-6-HM: 0.152 μM final) or PMA (2 ng/ml+ionomycin (1 ng/ml) added in a total volume of 220 μl RF-10, and incubated overnight at 37° C. Cells were stained with anti-CD3-PE-Cy7 (eBioscience, 20 μg/ml), anti-CD4-APC-Cy7 (Biolegend, 1.7 μg/ml), anti-CD161-APC (Miltenyi Biotec, 1:50), FITC-conjugated D5 (anti-MAIT TCR, 10 μg/ml) and either anti-CD69-PE (BD Biosciences 1:50), anti-IFNγ-PE (BD Pharmingen 10 μg/ml) or anti-TNFα-PE (BD Pharmingen 10 μg/ml), and analyzed by flow cytometry using a Canto II cytometer and Diva software. […] CD69 expression was analysed by flow cytometry. […]

- Stability [1]: unstable, particularly in solution
SMILES: Cc1nc2c(=O)[nH]c(=O)nc-2n(C[C@H](O)[C@H](O)[C@H](O)CO)c1C [Compound 1, 6,7-dimethyl-8-D-ribityllumazine]
- Activation of MAIT cells (CD69 upregulation, intracellular IFN-γ and TNF-α) [2]: specifically activated
